Reference: paper PMC9040678, “Sequence-specific capture and concentration of viral RNA by type III CRISPR system enhances diagnostic” (Research Square, 2022)

Biological target: T1, TtCan1 (Thermus thermophilus, UniProt Q53W14)
T1 construct: gene TTHB155; codon-optimised synthetic gene, E. coli BL21(DE3); N-terminal His6-TwinStrep-SUMO tag removed; monomeric
T1 sequence (Q53W14 1-636): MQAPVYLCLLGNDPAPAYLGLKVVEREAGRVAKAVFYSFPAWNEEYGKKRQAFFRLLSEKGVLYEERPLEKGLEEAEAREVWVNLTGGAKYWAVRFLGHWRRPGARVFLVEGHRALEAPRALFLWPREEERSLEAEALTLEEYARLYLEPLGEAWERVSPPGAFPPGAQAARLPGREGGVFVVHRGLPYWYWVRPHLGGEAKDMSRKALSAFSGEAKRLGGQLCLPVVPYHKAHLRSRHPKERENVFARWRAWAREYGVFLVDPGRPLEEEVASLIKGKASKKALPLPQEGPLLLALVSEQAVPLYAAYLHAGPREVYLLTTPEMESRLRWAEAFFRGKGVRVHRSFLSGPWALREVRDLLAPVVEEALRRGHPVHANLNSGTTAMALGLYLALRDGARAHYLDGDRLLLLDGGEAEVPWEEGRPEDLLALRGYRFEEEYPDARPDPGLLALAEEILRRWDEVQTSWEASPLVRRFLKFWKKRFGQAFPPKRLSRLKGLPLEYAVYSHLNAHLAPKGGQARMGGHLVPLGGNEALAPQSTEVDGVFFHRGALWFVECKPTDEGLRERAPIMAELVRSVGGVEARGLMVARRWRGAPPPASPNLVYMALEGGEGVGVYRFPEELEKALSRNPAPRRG
Assay: ssRNA cleavage, denaturing PAGE; fluorescent RNA reporters
Format: biochemical
Conditions: allosteric activator of ssRNase activity; 200 nM enzyme, 20 nM cA4, pH 7.8, 60 °C

## Nc1ncnc2c1ncn2[C@@H]1O[C@@H]2COP(=O)(O)O[C@H]3[C@@H](O)[C@H](n4cnc5c(N)ncnc54)O[C@@H]3COP(=O)(O)O[C@H]3[C@@H](O)[C@H](n4cnc5c(N)ncnc54)O[C@@H]3COP(=O)(O)O[C@H]3[C@@H](O)[C@H](n4cnc5c(N)ncnc54)O[C@@H]3COP(=O)(O)O[C@H]2[C@H]1O [cA4]
  ssRNA cleavage, denaturing PAGE; fluorescent RNA reporters: TtCan1 is a cA4-dependent single-stranded RNase (ssRNA) but does not cleave ssDNA
